Data: US4272541A, “7,8 and 7-8 Substituted 4,5α-epoxymorphinan-6-one compounds, and methods of treating pain and drug dependence with them” (Miles Laboratories, Inc., priority 1979, dated 1981)
Counter-ions that a name gives are not always drawn. Like-named read-outs stand apart in the source and are kept apart here.

How the values were obtained:
morphine effect = test: Narcotic antagonist activity, modified rat tail flick test; assay type: in vivo, rats (male albino Wistar); conditions: for ED50: Rattus norvegicus, ip, read-out: AD50 (the source's name); for narcotic antagonist activity: in words
Method: (B) Narcotic antagonist activity in rats (modified rat tail flick test).
TEST B. EVALUATION OF NARCOTIC ANTAGONIST ACTIVITY
The narcotic antagonist effects of test compounds were determined by a modification of the rat tail flick procedure of Harris and Pierson (J. Pharmacol. Exp. Ther. 143,141 [1964]).
Male albino Wistar rats (100-120 g) were used for this study. A rat's tail is so placed so as to cover a photocell. Heat is applied by a lamp in a reflector with a timer being connected to the lamp and photocell so that the timer goes on when the light is turned on and is turned off when the photocell is uncovered. A rheostat, incorporated into a heating lamp is used to adjust the intensity of the light falling on the tail of the rat such that the rat's control reaction time is from two to four seconds. Animals with a control reaction time outside this range are rejected. The rheostat adjustment is made only if a significant proportion (more than 2 out of every 10 rats) of the reaction times are outside the range of two to four seconds. Groups of five rats were used each time, and two control times were determined at 60 and 30 minutes prior to subcutaneous injection of the drug.
Thirty minutes after the last control run the test drug was given intraperitoneally. This was followed ten minutes later by an ED80 dose of morphine subcutaneously. The animals were retested at 20 minutes after the morphine injection. Control animals were given vehicle and morphine only. The data were calculated as follows: [formula]
The data were plotted on log-probit paper and AD50 values, i.e., the dose required to inhibit the morphine effect by 50% within 95% confidence limits, were determined by the method of Litchfield and Wilcoxon.

writhing = test: Acetic acid mouse writhing test (analgesic effects); assay type: in vivo, mice (male CD-1); conditions: for analgesic activity / analgesic/narcotic antagonist profile: in words; for analgesic/narcotic antagonist profile: from writhing ED50 and tail flick AD50 together
Method: (A) Analgesic effects upon mice (acetic acid writhing test).
TEST A. ACETIC ACID MOUSE WRITHING TEST
The analgesic effects of test compounds were determined in mice by use of the acetic acid writhing test described by B. J. R. Whittle, Brit. J. Pharmacol., 22:246 (1964). In this test at least three groups of five male CD-1 mice (18-22 g) each were given subcutaneous doses of the test drug dissolved in either distilled water or distilled water acidified with HCl depending on the solubility of the compound. In all cases, 0.4 milliliter of a 0.5% V/V acetic acid in distilled water solution was administered intraperitoneally 15 minutes post drug. The number of writhes in a 20 min. interval beginning 5 minutes after the acetic acid injection were determined and compared with the number of writhes in control groups which had received only acetic acid.
Percent inhibition of writhing was calculated as: [formula]
The ED50 dose, i.e., the dose required to reduce the number of writhes by 50%, was determined graphically from a plot of % inhibition as a probit versus log dose. Confidence limits of 95% were calculated on the basis of those results falling in the range 16-84% inhibition. See Litchfield, J. T. and Wilcoxon, F., J. Pharmacol. Exp. Ther., 96, 99-113, (1949).

[1] = rats, test drug i.p. 10 minutes before ED80 dose of morphine s.c., Table I
[2] = Mus musculus, sc, 0.25 h, mice, subcutaneous, acetic acid i.p. 15 minutes post drug, Table I, read-out: ED50
[3] = mice, subcutaneous, acetic acid i.p. 15 minutes post drug, Table I

Row | Structure (SMILES) | ED50 (morphine effect; [1]) | ED50 (writhing; [2]) | analgesic/narcotic antagonist profile (writhing) | also measured
1 | COc1ccc2c3c1O[C@H]1C(=O)CC[C@H]4[C@@H](C2)N(CC2CC2)CC[C@]314 [TR-5095, 7,8-dihydro-17-cyclopropylmethylnorcodeinone, reference compound] | 3.4 mg/kg | 17 mg/kg |  | 
2 | Br.COc1ccc2c3c1O[C@H]1C(=O)CC[C@H]4[C@@H](C2)N(CC2CCC2)CC[C@]314 [TR-5108, 17-Cyclobutylmethyl-4,5α-epoxy-3-methoxymorphinan-6-one Hydrobromide, reference compound] |  | 8.8 mg/kg |  | AD50 (morphine effect; [1]): IA.3
3 | CC[C@H]1CC(=O)[C@@H]2Oc3c(OC)ccc4c3[C@@]23CCN(CC2CC2)[C@H](C4)[C@H]13.Cl [TR-5109, 17-Cyclopropylmethyl-4,5α-epoxy-8β-ethyl-3-methoxymorphinan-6-one Hydrochloride] | 0.78 mg/kg | 2.1 mg/kg |  | narcotic antagonist activity (morphine effect): especially effective narcotic antagonists; analgesic activity (writhing): especially effective analgesics
4 | CC[C@H]1CC(=O)[C@@H]2Oc3c(O)ccc4c3[C@@]23CCN(CC2CCC2)[C@H](C4)[C@H]13 [TR-5115, 17-Cyclobutylmethyl-4,5α-epoxy-8β-ethyl-3-hydroxymorphinan-6-one] | 0.52 mg/kg | 9.2 mg/kg |  | narcotic antagonist activity (morphine effect): especially effective narcotic antagonists
5 | CC[C@H]1CC(=O)[C@@H]2Oc3c(O)ccc4c3[C@@]23CCN(CC2CC2)[C@H](C4)[C@H]13 [TR-5126, 17-Cyclopropylmethyl-4,5α-epoxy-8β-ethyl-3-hydroxymorphinan-6-one] | 0.25 mg/kg | 7.8 mg/kg |  | narcotic antagonist activity (morphine effect): especially effective narcotic antagonists
6 | C=CCN1CC[C@]23c4c5ccc(OC)c4O[C@H]2C(=O)C[C@H](CC)[C@H]3[C@H]1C5.Cl [TR-5256, 17-Allyl-4,5α-epoxy-8β-ethyl-3-methoxymorphinan-6-one Hydrochloride] | 5.6 mg/kg |  | some mixed analgesic narcotic antagonist activity but is not particularly potent in either respect | 
7 | C=CCN1CC[C@]23c4c5ccc(O)c4O[C@H]2C(=O)C[C@H](CC)[C@H]3[C@H]1C5.Cl [TR-5266, 17-Allyl-4,5α-epoxy-8β-ethyl-3-hydroxymorphinan-6-one Hydrochloride] | 0.58 mg/kg |  |  | narcotic antagonist activity (morphine effect): especially effective narcotic antagonists; analgesic activity (writhing): except for TR-5266 they demonstrate analgesic activity; ED50 (writhing; [3]): IA 10
8 | CC[C@H]1CC(=O)[C@@H]2Oc3c(O)ccc4c3[C@@]23CCN(CC2CCCO2)[C@H](C4)[C@H]13.Cl (stereo partly drawn) [TR-5271, 4,5α-Epoxy-8β-ethyl-3-hydroxy-17-tetrahydrofurfuryl-morphinan-6-one Hydrochloride] | 1.8 mg/kg | 1.06 mg/kg |  | analgesic activity (writhing): especially effective analgesics
9 | COc1ccc2c3c1O[C@H]1C(=O)[C@@H](C)C[C@H]4[C@@H](C2)N(CC2CC2)CC[C@]314 [TR-5394, Hydrochloride] | 1.6 mg/kg |  |  | ED50 (writhing; [3]): IA 10
10 | C[C@H]1C[C@H]2[C@H]3Cc4ccc(O)c5c4[C@@]2(CCN3CC2CC2)[C@@H](O5)C1=O [TR-5402, 17-Cyclopropylmethyl-4,5α-epoxy-3-hydroxy-7α-methylmorphinan-6-one] |  | 0.42 mg/kg | mixed analgesics/narcotic antagonists | ED50 (morphine effect; agonist-antagonist potency, unit inferred): 1.63 mg/kg; ED50 (writhing; Mus musculus, sc, agonist-antagonist potency, unit inferred, read-out: ED50): 0.42 mg/kg
11 | COc1ccc2c3c1O[C@H]1C(=O)[C@@H](C)C[C@H]4[C@@H](C2)N(CC2CCC2)CC[C@]314.Cl [TR-5403, 17-Cyclobutylmethyl-4,5α-epoxy-3-methoxy-7α-methylmorphinan-6-one Hydrochloride] |  | 9 mg/kg |  | ED50 (morphine effect; rats, vs morphine, *Estimated): 16.5 mg/kg
12 | C[C@H]1C[C@H]2[C@H]3Cc4ccc(O)c5c4[C@@]2(CCN3CC2CCC2)[C@@H](O5)C1=O [TR-5404, 17-Cyclobutylmethyl-4,5α-epoxy-3-hydroxy-7α-methylmorphinan-6-one Hydrochloride] | 13.2 mg/kg | 0.3 mg/kg |  | 
13 | COc1ccc2c3c1O[C@H]1C(=O)[C@@H](C)[C@H](C)[C@H]4[C@@H](C2)N(CC2CC2)CC[C@@]341 [TR-5410, 17-Cyclopropylmethyl-7α,8β-dimethyl-4,5-epoxy-3-methoxymorphinan-6-one Hydrochloride] | 0.98 mg/kg | > 10 mg/kg |  | 
14 | C[C@@H]1[C@H]2[C@H]3Cc4ccc(O)c5c4[C@@]2(CCN3CC2CC2)[C@@H](O5)C(=O)[C@H]1C.Cl [TR-5416, 17-Cyclopropylmethyl-7α,8β-dimethyl-4,5α-epoxy-3-hydroxymorphinan-6-one Hydrochloride] | 0.57 mg/kg |  | pure narcotic antagonist | ED50 (writhing; [3]): IA 10
15 | CC[C@@H]1CC(=O)[C@@H]2Oc3c(OC)ccc4c3[C@@]23CCN(CC2CC2)[C@H](C4)[C@H]13.O=C(O)C(O)C(O)C(=O)O [TR-5427, 17-Cyclopropylmethyl-4,5α-epoxy-8α-ethyl-3-methoxymorphinan-6-one Tartrate] | > 10 mg/kg | > 10 mg/kg |  | 
16 | CC[C@@H]1CC(=O)[C@@H]2Oc3c(OC)ccc4c3[C@@]23CCN(CC2CCC2)[C@H](C4)[C@H]13.O=C(O)C(O)C(O)C(=O)O [TR-5428, 17-Cyclobutylmethyl-4,5α-epoxy-8α-ethyl-3-methoxymorphinan-6-one Tartrate] |  |  |  | AD50 (morphine effect; [1]): IA 10; ED50 (writhing; [3]): IA 10
17 | COc1ccc2c3c1O[C@H]1C(=O)[C@@H](C)[C@H](C)[C@H]4[C@@H](C2)N(CC2CCC2)CC[C@@]341 [TR-5429, 17-Cyclobutylmethyl-7α,8β-dimethyl-4,5α-epoxy-3-methoxymorphinan-6-one] | ~10 mg/kg | > 10 mg/kg |  | 
18 | C[C@@H]1[C@H]2[C@H]3Cc4ccc(O)c5c4[C@@]2(CCN3CC2CCC2)[C@@H](O5)C(=O)[C@H]1C [TR-5430, 17-Cyclobutylmethyl-7α,8β-dimethyl-4,5α-epoxy-3-hydroxymorphinan-6-one] | 2.5 mg/kg | 5.8 mg/kg | mixed analgesics/narcotic antagonists | 
19 | CC[C@@H]1CC(=O)[C@@H]2Oc3c(O)ccc4c3[C@@]23CCN(CC2CC2)[C@H](C4)[C@H]13.Cl [TR-5436, 17-Cyclopropylmethyl-4,5α-epoxy-8α-ethyl-3-hydroxymorphinan-6-one Hydrochloride] | 4.1 mg/kg | 0.36 mg/kg | mixed analgesic/narcotic antagonist | narcotic antagonist activity (morphine effect): also exhibits narcotic antagonist activity; analgesic activity (writhing): strong analgesic
20 | CC[C@@H]1CC(=O)[C@@H]2Oc3c(O)ccc4c3[C@@]23CCN(CC2CCC2)[C@H](C4)[C@H]13.Cl [TR-5437, 17-Cyclobutylmethyl-4,5α-epoxy-8α-ethyl-3-hydroxymorphinan-6-one Hydrochloride] | > 10 mg/kg | 0.15 mg/kg | pure analgesic | 
